Where “and” joins values, the source holds several entries; their conditions need not be identical. Equal values may be shown once. Toxic doses and inconclusive results are not listed. The calls were made as follows: active = survival T/C of 150% or more; inactive = T/C below 125% in these data.
Test system: BDF1 mice, B16 melanoma ip, median survival T/C
Experiment: NCI In Vivo Anticancer Drug Screen. Data for tumor model B16 Melanoma (intraperitoneal) in B6D2F1 (BDF1) mice
Details: endpoint: median survival time, schedule: Q01DX009 (ip), higher = longer survival
Procedure: The antitumor activity of compounds was measured in mice bearing transplantable tumors. Survival or tumor size were measured and the results are expressed as the measurement made in the treated group (T) divided by the measurement made in the vehicle treated control group (C). The tumor model used in this assay is B16 Melanoma (intraperitoneal) in B6D2F1 (BDF1) mice

[1] = dose: 32.0 mg/kg/injection, vehicle: Klucel (hydroxypropylcellulose) (HPC)
[2] = dose: 64.0 mg/kg/injection, vehicle: Klucel (hydroxypropylcellulose) (HPC)
[3] = dose: 128.0 mg/kg/injection, vehicle: Klucel (hydroxypropylcellulose) (HPC)
[4] = dose: 25.0 mg/kg/injection, vehicle: saline with Tween-80
[5] = dose: 0.78 mg/kg/injection, vehicle: saline
[6] = dose: 1.56 mg/kg/injection, vehicle: saline
[7] = dose: 3.12 mg/kg/injection, vehicle: saline
[8] = dose: 25.0 mg/kg/injection, vehicle: saline
[9] = dose: 50.0 mg/kg/injection, vehicle: saline
[10] = dose: 256.0 mg/kg/injection, vehicle: Klucel (hydroxypropylcellulose) (HPC)
[11] = dose: 100.0 mg/kg/injection, vehicle: saline with Tween-80
[12] = dose: 200.0 mg/kg/injection, vehicle: saline with Tween-80
[13] = dose: 400.0 mg/kg/injection, vehicle: saline with Tween-80
[14] = dose: 12.5 mg/kg/injection, vehicle: Klucel (hydroxypropylcellulose) (HPC)
[15] = dose: 25.0 mg/kg/injection, vehicle: Klucel (hydroxypropylcellulose) (HPC)
[16] = dose: 50.0 mg/kg/injection, vehicle: Klucel (hydroxypropylcellulose) (HPC)
[17] = dose: 50.0 mg/kg/injection, vehicle: saline with Tween-80
[18] = dose: 6.25 mg/kg/injection, vehicle: saline
[19] = dose: 12.5 mg/kg/injection, vehicle: saline
[20] = dose: 100.0 mg/kg/injection, vehicle: saline
[21] = dose: 100.0 mg/kg/injection, vehicle: Klucel (hydroxypropylcellulose) (HPC)
[22] = dose: 200.0 mg/kg/injection, vehicle: Klucel (hydroxypropylcellulose) (HPC)

Measured: T/C

CCCCC1(CC)COC(C)(c2ccccc2)OC1 (configuration not stated)
inactive: dose: 75.0 mg/kg/injection, vehicle: saline with Tween-80 108 % of control | dose: 150.0 mg/kg/injection, vehicle: saline with Tween-80 106 % of control | dose: 300.0 mg/kg/injection, vehicle: saline with Tween-80 98 % of control

CN1CCN(Cc2c(O)ccc3c4c(c(=O)oc23)CCCC4)CC1
inactive: [1] 105 % of control | [2] 100 % of control | [3] 100 % of control

CCCCC(=O)OCC1OC(n2cnc3c(=S)nc[nH]c32)C(OC(=O)CCCC)C1OC(=O)CCCC (configuration not stated)
inactive: [4] 119 % of control

Oc1ccc(O)cc1
inactive: [5] 92 % of control | [6] 89 % of control | [7] 89 % of control | [8] 89 % of control and 117 % of control | [9] 96 % of control and 118 % of control

Cc1cc2oc(=O)c3c(c2c(O)c1CN1CCOCC1)CCCC3
inactive: [2] 103 % of control | [3] 98 % of control | [10] 108 % of control

CCOC(=O)C(C(=O)OCC)c1cc(NC(=O)c2ccccc2)ccc1NC(=O)c1ccccc1
inactive: [11] 95 % of control | [12] 91 % of control | [13] 89 % of control

O=C1C(N2CCCCC2)=C(N2CC2)C(=O)C(N2CCCCC2)=C1N1CC1
inactive: dose: 2.5 mg/kg/injection, vehicle: saline 94 % of control and 97 % of control | dose: 5.0 mg/kg/injection, vehicle: saline 121 % of control

CC(C)/C=C(\C#N)C(=O)O
inactive: [14] 100 % of control | [15] 100 % of control | [16] 100 % of control

C/C=C/CNc1ccc(C)cc1
inactive: [4] 102 % of control | [17] 102 % of control | [11] 92 % of control

Cc1n(CC(C)C)c2c([n+]1C)C(=O)c1ccccc1C2=O
inactive: dose: 1.0 mg/kg/injection, vehicle: saline 90 % of control | dose: 2.0 mg/kg/injection, vehicle: saline 87 % of control

CC(=O)Nc1cc(F)c([N+](=O)[O-])cc1[N+](=O)[O-]
inactive: dose: 0.63 mg/kg/injection, vehicle: saline with Tween-80 104 % of control | dose: 1.25 mg/kg/injection, vehicle: saline with Tween-80 90 % of control | dose: 2.5 mg/kg/injection, vehicle: saline with Tween-80 104 % of control

C=C1CCN(c2ccc(F)cc2)C1=O
inactive: dose: 4.0 mg/kg/injection, vehicle: saline + alcohol 104 % of control | dose: 16.0 mg/kg/injection, vehicle: saline + alcohol 100 % of control | dose: 32.0 mg/kg/injection, vehicle: saline + alcohol 112 % of control | dose: 64.0 mg/kg/injection, vehicle: saline + alcohol 110 % of control

Cc1ccc(S(=O)(=O)Cl)cc1Cl
inactive: [4] 108 % of control | [17] 97 % of control | [11] 86 % of control

O=c1ccn(C2OC(CO)C(O)C2O)c(=O)[nH]1 (configuration not stated)
inactive: dose: 16.0 mg/kg/injection, vehicle: saline 100 % of control | [1] 98 % of control and 104 % of control | dose: 32.0 mg/kg/injection, vehicle: saline 96 % of control and 101 % of control | [2] 99 % of control and 101 % of control | dose: 64.0 mg/kg/injection, vehicle: saline 93 % of control and 98 % of control | [3] 103 % of control | dose: 128.0 mg/kg/injection, vehicle: saline 101 % of control and 114 % of control | [10] 97 % of control and 103 % of control | dose: 256.0 mg/kg/injection, vehicle: saline 100 % of control and 110 % of control | dose: 512.0 mg/kg/injection, vehicle: Klucel (hydroxypropylcellulose) (HPC) 102 % of control and 108 % of control | dose: 512.0 mg/kg/injection, vehicle: saline 105 % of control

CN1CCC(OC2c3ccccc3CCc3ccccc32)CC1
inactive: [7] 100 % of control | [18] 104 % of control | [19] 104 % of control | [8] 97 % of control

N=C(N)Sc1ccccn1
inactive: [19] 95 % of control | dose: 12.5 mg/kg/injection, vehicle: suspension in saline 98 % of control | [8] 97 % of control | dose: 25.0 mg/kg/injection, vehicle: suspension in saline 100 % of control | [9] 100 % of control | dose: 50.0 mg/kg/injection, vehicle: suspension in saline 92 % of control | [20] 98 % of control | dose: 100.0 mg/kg/injection, vehicle: suspension in saline 92 % of control

CCCCNC(=O)Nc1ccc(CC)cc1
inactive: [21] 100 % of control | [22] 91 % of control

CCOC(=O)c1ccc(OC(=O)Nc2ccccc2OC)cc1
inactive: [11] 95 % of control | [12] 88 % of control

O=c1cc(-c2ccccc2)[nH]c(-c2ccccc2)c1
inactive: dose: 8.0 mg/kg/injection, vehicle: saline with Tween-80 95 % of control | dose: 18.0 mg/kg/injection, vehicle: saline with Tween-80 97 % of control

COC(=O)/C=C/C=C(c1ccccc1)c1ccccc1
inactive: [17] 94 % of control | [11] 100 % of control | [12] 94 % of control | [13] 94 % of control

CN(N=O)C(N)=O
inactive: dose: 3.13 mg/kg/injection, vehicle: saline 114 % of control | [18] 116 % of control

CN1C(=O)C(=Cc2ccc(O)cc2)C(=O)N(C)C1=O
inactive: dose: 12.5 mg/kg/injection, vehicle: saline with Tween-80 101 % of control | [4] 97 % of control

CN1CCC(CO)C1 (configuration not stated)
inactive: dose: 6.25 mg/kg/injection, vehicle: water 99 % of control | dose: 12.5 mg/kg/injection, vehicle: water 109 % of control | dose: 25.0 mg/kg/injection, vehicle: water 108 % of control | [9] 100 % of control | dose: 50.0 mg/kg/injection, vehicle: water 103 % of control | [20] 97 % of control | dose: 200.0 mg/kg/injection, vehicle: saline 91 % of control

O=C(O)/C=C/C(=O)Nc1cccc(Oc2ccc([N+](=O)[O-])cc2[N+](=O)[O-])c1
inactive: dose: 150.0 mg/kg/injection, vehicle: Klucel (hydroxypropylcellulose) (HPC) 90 % of control | dose: 300.0 mg/kg/injection, vehicle: Klucel (hydroxypropylcellulose) (HPC) 107 % of control

C[N+](C)(C)C
inactive: dose: 0.37 mg/kg/injection, vehicle: saline 112 % of control | dose: 1.5 mg/kg/injection, vehicle: saline 109 % of control | [19] 95 % of control

CN(C)c1ccc(/C=C2\C=Cc3ccccc32)cc1
inactive: [17] 92 % of control | [11] 89 % of control | [12] 92 % of control

COc1ccc(/C=N/n2c3ccccc3c3ccccc32)cc1OCCCN(C)C
inactive: dose: 0.39 mg/kg/injection, vehicle: saline 120 % of control | [5] 102 % of control | [6] 112 % of control | [7] 105 % of control | [18] 105 % of control | [14] 97 % of control

C1=NC(c2ccccn2)=NNC(c2ccccn2)=C1c1ccccc1
inactive: [15] 100 % of control | [16] 101 % of control | [21] 86 % of control

Cc1cccc(NC(=O)Nc2ccccc2Cl)n1
inactive: [16] 90 % of control | [21] 94 % of control | [22] 94 % of control

— PubChem BioAssay AID192 (DTP/NCI, 2004)
